# Assay results from publication PMC11189555, “Aryl amino acetamides prevent Plasmodium falciparum ring development via targeting the lipid-transfer protein PfSTART1” (Nature Communications, 2024).
# System: PopD C6 M-833 resistant clone (PfSTART1 N309K)
# Assay: Growth inhibition assay (72 h, LDH activity)
# Format: cell-based, Plasmodium falciparum
# Protocol: The drug was then removed, and parasites were allowed to recover. Another cycle of drug treatment (3 μM M-833) was then resumed. The resistant lines were cloned out by limiting dilution (diluting the culture into a 96-well plate to achieve an average of ~0.3 parasites per well), prior to growth inhibition assays and genomic DNA (gDNA) extraction (DNeasy Blood and Tissue kit (Qiagen)[18].
# Parasite growth assays with inhibitory compounds were performed as per[11] and are fully described in the Supplementary Information.
# Molecular biology and transfection of P. falciparum: CRISPR method.
# The full 5’ homology region of pfstart1 (either WT, N309K or N330K) was amplified from pPfSTART1-HA-2A-Neo-glmS with the same 5’ BglII primer and a new 3’ primer that replaced with PstI with SpeI and introduced a stop codon. The PCR product was then digested with BglII and SpeI and inserted into similarly digested p1.2 parasite vector2. The p1.2 vector had previously been inserted with a homology region amplified from the 3’ end of the pfstart1 gene (3’HB) to form a second homology block for double recombination. The primers used to amplify 3’HB are listed primers listed in […]
# 60 μg of p1.2-PfSTART1(WT/N309K/N330K) plasmid was linearised with KasI, precipitated in 3 M sodium acetate and ethanol (70% final concentration) overnight at -20°C. The DNA pellet was washed in cold 70% ethanol and resuspended in cytomix 3.
# 50 μ M of crRNA ( Table S 2) and 50 μM of tracRNA (Integrated DNA Technologies) were allowed to form a duplex (5 min at 95°C), and Cas9 enzyme (Integrated DNA Technologies) was added, and incubated for 20 min at room temperature 4. This crRNA -tracRNA -Cas9 mix was added to each DNA preparation and transfected to 3D7 ring parasites using the Bio -Rad Gene Pulser at 310 V and 950 μF.
# Parasites containing the transfected DNA were selected using 2.5 nM WR99210 (Jacobus). Parasites lines were cloned using limiting dilution. Correct integration was tested by PCR (using primer START_5’UTR.F and START_Int.R1 , Table S 2), and sequencing was done using the primers START_3F and START_Int.R2 (Table S 2).
# Growth inhibition assays. Synchronised ring-stage parasites (0.3-0.6% parasitemia, 2% haematocrit) were grown for 72 h in a serial-dilution of the compound under […]
# and compound 4. Note that M-833 was first purchased from MolPort (MolPort -002-267-916) then made in-house at WEHI: the differences observed in EC50s across experiments are attributed to the different batches of M -833. For some experiments, 0, 0.25 or 2.5 mM of glucosamine (GlcN) was also added. Experiments were set up in technical duplicates or triplicates. Following a freeze -thaw cycle, lactate dehydrogenase (LDH) activity was assessed as an indicator of parasite growt h 5. 30 μL of parasite culture was incubated for 30 min in the dark with 75 μL Malstat mixture (0.1 M Tris pH 9.0, 20 g/L lactic acid, pH 7.5, 0.2% Triton-X100, 0.5 g/L acetylpyridine adenine dinucleotide (APAD, Sigma), 200 μg/mL nitroblue tetrazolium (NBT; Sigma), 1 μg/mL phenozine ethosulfate (PES; Sigma)). Absorbance was then measured at 650 nm, transformed using the formula below, plotted against the logarithm of the concentrations, and a non-linear regression (log(inhibitor) vs. response, variable slope) was calculated using GraphPad Prism to assess the half-inhibitory […]
# Growth inhibition % = (1 − average(sample)− average(uRBC)) ∗ 100 […]
# The DMSO samples were also used to assess growth of parasite in the presence of 0.25 and 2.5 mM GlcN (normalised by DMSO in 0 mM GlcN).
# Egress, invasion & recovery assay. To measure egress, invasion and follow up recovery in the presence of different compounds, we adapted the method developed in6, using Hyp1-Nluc parasites7. These parasites episomally express the exported PEXEL protein Hyp1 (PF3D7_0113300) tagged with a NanoLuc luciferase (NLuc) and were selected with 2.5 nM WR99210 (Jacobus). Highly synchronised schizonts were […]
structure (smiles),measurement,setting,value
Cc1cc(Cl)c(S(=O)(=O)N2CCCC2)cc1OCC(=O)NC1CCCCC1 [M-833],Normalised to DMSO,"M-833 0.0390625 uM, Pop D-C6 replicate 1",106.597
same,Normalised to DMSO,"M-833 0.0390625 uM, Pop D-C6 replicate 3",109.19
same,Normalised to DMSO,"M-833 0.078125 uM, Pop D-C6 replicate 1",104.398
same,Normalised to DMSO,"M-833 0.078125 uM, Pop D-C6 replicate 3",106.818
same,Normalised to DMSO,"M-833 0.15625 uM, Pop D-C6 replicate 1",106.528
same,Normalised to DMSO,"M-833 0.15625 uM, Pop D-C6 replicate 3",112.747
same,Normalised to DMSO,"M-833 0.3125 uM, Pop D-C6 replicate 1",101.389
same,Normalised to DMSO,"M-833 0.3125 uM, Pop D-C6 replicate 3",96.5909
same,Normalised to DMSO,"M-833 0.625 uM, Pop D-C6 replicate 1",99.6991
same,Normalised to DMSO,"M-833 0.625 uM, Pop D-C6 replicate 3",97.6285
same,Normalised to DMSO,"M-833 1.25 uM, Pop D-C6 replicate 1",88.1713
same,Normalised to DMSO,"M-833 1.25 uM, Pop D-C6 replicate 3",89.9209
same,Normalised to DMSO,"M-833 2.5 uM, Pop D-C6 replicate 1",68.7963
same,Normalised to DMSO,"M-833 2.5 uM, Pop D-C6 replicate 3",69.4664
same,Normalised to DMSO,"M-833 5 uM, Pop D-C6 replicate 1",41.5972
same,Normalised to DMSO,"M-833 5 uM, Pop D-C6 replicate 3",40.2668
same,Normalised to DMSO,"M-833 10 uM, Pop D-C6 replicate 1",22.7778
same,Normalised to DMSO,"M-833 10 uM, Pop D-C6 replicate 3",32.2628
same,inhibition at 0.0390625 µM,"Plasmodium falciparum, M-833 0.0390625 uM, Pop D-C6 replicate 1",-6.6%
same,inhibition at 0.0390625 µM,"Plasmodium falciparum, M-833 0.0390625 uM, Pop D-C6 replicate 3",-9.19%
same,inhibition at 0.078125 µM,"Plasmodium falciparum, M-833 0.078125 uM, Pop D-C6 replicate 1",-4.4%
same,inhibition at 0.078125 µM,"Plasmodium falciparum, M-833 0.078125 uM, Pop D-C6 replicate 3",-6.82%
same,inhibition at 0.15625 µM,"Plasmodium falciparum, M-833 0.15625 uM, Pop D-C6 replicate 1",-6.53%
same,inhibition at 0.15625 µM,"Plasmodium falciparum, M-833 0.15625 uM, Pop D-C6 replicate 3",-12.7%
same,inhibition at 0.3125 µM,"Plasmodium falciparum, M-833 0.3125 uM, Pop D-C6 replicate 1",-1.39%
same,inhibition at 0.3125 µM,"Plasmodium falciparum, M-833 0.3125 uM, Pop D-C6 replicate 3",3.41%
same,inhibition at 0.625 µM,"Plasmodium falciparum, M-833 0.625 uM, Pop D-C6 replicate 1",0.301%
same,inhibition at 0.625 µM,"Plasmodium falciparum, M-833 0.625 uM, Pop D-C6 replicate 3",2.37%
same,inhibition at 1.25 µM,"Plasmodium falciparum, M-833 1.25 uM, Pop D-C6 replicate 1",11.8%
same,inhibition at 1.25 µM,"Plasmodium falciparum, M-833 1.25 uM, Pop D-C6 replicate 3",10.1%
same,inhibition at 2.5 µM,"Plasmodium falciparum, M-833 2.5 uM, Pop D-C6 replicate 1",31.2%
same,inhibition at 2.5 µM,"Plasmodium falciparum, M-833 2.5 uM, Pop D-C6 replicate 3",30.5%
same,inhibition at 5 µM,"Plasmodium falciparum, M-833 5 uM, Pop D-C6 replicate 1",58.4%
same,inhibition at 5 µM,"Plasmodium falciparum, M-833 5 uM, Pop D-C6 replicate 3",59.7%
same,inhibition at 10 µM,"Plasmodium falciparum, M-833 10 uM, Pop D-C6 replicate 1",77.2%
same,inhibition at 10 µM,"Plasmodium falciparum, M-833 10 uM, Pop D-C6 replicate 3",67.7%
same,inhibition at 0.0390625 µM,"Plasmodium falciparum, Pop D-C6 replicate 1, M-833 0.0390625 uM",-0.105%
same,inhibition at 0.078125 µM,"Plasmodium falciparum, Pop D-C6 replicate 1, M-833 0.078125 uM",-0.157%
same,inhibition at 0.15625 µM,"Plasmodium falciparum, Pop D-C6 replicate 1, M-833 0.15625 uM",1.36%
same,inhibition at 0.3125 µM,"Plasmodium falciparum, Pop D-C6 replicate 1, M-833 0.3125 uM",4.07%
same,inhibition at 0.625 µM,"Plasmodium falciparum, Pop D-C6 replicate 1, M-833 0.625 uM",7.36%
same,inhibition at 1.25 µM,"Plasmodium falciparum, Pop D-C6 replicate 1, M-833 1.25 uM",9.35%
same,inhibition at 2.5 µM,"Plasmodium falciparum, Pop D-C6 replicate 1, M-833 2.5 uM",19.4%
same,inhibition at 5 µM,"Plasmodium falciparum, Pop D-C6 replicate 1, M-833 5 uM",34.9%
same,inhibition at 10 µM,"Plasmodium falciparum, Pop D-C6 replicate 1, M-833 10 uM",62%
same,EC50,"Plasmodium falciparum, read-out: EC50 (95% confidence interval)",4.19 µM
same,Normalised to DMSO,"Pop D-C6 replicate 1, M-833 0.0390625 uM",100.105
same,Normalised to DMSO,"Pop D-C6 replicate 1, M-833 0.078125 uM",100.157
same,Normalised to DMSO,"Pop D-C6 replicate 1, M-833 0.15625 uM",98.6386
same,Normalised to DMSO,"Pop D-C6 replicate 1, M-833 0.3125 uM",95.9333
same,Normalised to DMSO,"Pop D-C6 replicate 1, M-833 0.625 uM",92.6433
same,Normalised to DMSO,"Pop D-C6 replicate 1, M-833 1.25 uM",90.6536
same,Normalised to DMSO,"Pop D-C6 replicate 1, M-833 2.5 uM",80.5829
same,Normalised to DMSO,"Pop D-C6 replicate 1, M-833 5 uM",65.0842
same,Normalised to DMSO,"Pop D-C6 replicate 1, M-833 10 uM",37.9963
